4 compounds from ChEMBL document CHEMBL5532665 (J Med Chem, 2024) can be followed below.

Activity calls are given as the source filed them. The rule behind the calls is not given here.

The test system of assay [1] is Mus musculus. Kind of assay: Antinociceptive activity in Kunming mouse model assessed as latency of tail withdrawal at 1362 nmol/kg, sc measured for 30 mins by tail-flick test relative to control. Format: functional. Particulars: 0.5 h. (In general: Hot-plate and tail-flick tests time the reaction to a heat stimulus.)
Assay [2] relates to Mus musculus. As to the kind of experiment: Antinociceptive activity in Kunming mouse model assessed as latency of tail withdrawal at 1362 nmol/kg, sc measured for 60 mins by tail-flick test relative to control. Format: functional. Particulars: 1 h.
Assay [3] concerns Mus musculus. Kind of assay: Antinociceptive activity in Kunming mouse model assessed as latency of tail withdrawal at 1362 nmol/kg, sc measured for 120 mins by tail-flick test relative to control. Particulars: 2 h. It counts as functional.
Assay [4] has as its system Mus musculus. As to the kind of experiment: Antinociceptive activity in Kunming mouse model assessed as latency of tail withdrawal at 1362 nmol/kg, sc measured for 10 mins by tail-flick test relative to control. Format: functional.
Assay [5] relates to Mus musculus. Kind of assay: Induction of physical dependence in Kunming mouse model assessed as jumping behavior at 2.5 to 125 nmol/kg, sc administered as 7 escalating doses with 8 hr-intervals in-between followed by Nal administration post-2 hrs of last compound dose and further measured for 30 mins by withdrawal assay. It counts as functional, organism-based. Particulars: dose 2.5-125 nmol/kg, time 50.5 hrs.

The test system of assay [6] is Mus musculus. Kind of assay: Antinociceptive activity in Kunming mouse model at 13.9 nmol/kg, sc pretreated with NALM subcutaneously followed by compound administration by tail-flick test. It counts as functional, organism-based.
For assay [7], the system named is Mus musculus. Kind of assay: Rewarding affect in Kunming mouse model at 139 nmol/kg, sc pre-exposed to place conditioning for 3 days followed by compound administration and further re-exposed to place conditioning measured on day 5 by unbiased CPP method. It counts as functional, organism-based. Particulars: time 2.0 day.
For assay [8], the system named is Mus musculus. Kind of assay: Antinociceptive activity in Kunming mouse model at 13.9 nmol/kg, sc in presence of beta-FNA by tail-flick test. It counts as functional, organism-based.
Assay [9] addresses Kappa-type opioid receptor (Homo sapiens, UniProt P41145). As to the kind of experiment: Agonist activity at human KOR expressed in CHO-K1 cells co-expressing G-alpha15 by calcium mobilization assay relative to control. It counts as functional, cell-based. Particulars: filed as agonist. Background: Calcium assays in cells follow changes in intracellular calcium, usually with a dye or a luminescent sensor.

For assay [10], the system named is Mus musculus. As to the kind of experiment: Antinociceptive activity in Kunming mouse model at 13.9 nmol/kg, sc in presence of NTI by tail-flick test. Format: functional, organism-based.
Assay [11] has as its system Mus musculus. As to the kind of experiment: Antinociceptive activity in Kunming mouse model assessed as increase in analgesic effect at 0.14 to 13.9 nmol/kg, sc measured for 180 to 360 mins by tail-flick test. It counts as functional, organism-based. Particulars: dose 0.14-13.9 nmol/kg, time 180-360 min.
In assay [12] the test system is Mus musculus. As to the kind of experiment: Antinociception activity in Kunming mouse model assessed as analgesic effect at 13.9 nmol/kg, sc administered daily measured for 8 days by tail-flick test. It counts as functional, organism-based. Particulars: time 8.0 day.
The test system of assay [13] is Mus musculus. As to the kind of experiment: Antinociceptive activity in Kunming mouse model at 13.9 nmol/kg, sc in presence of nor-BNI by tail-flick test. It counts as functional, organism-based.
In assay [14] the target is Delta-type opioid receptor (Homo sapiens, UniProt P41143). Kind of assay: Agonist activity at human DOR expressed in CHO-K1 cells co-expressing G-alpha15 by calcium mobilization assay relative to control. It counts as functional, cell-based. Particulars: filed as agonist.
Assay [15] deals with Mus musculus. As to the kind of experiment: Antinociceptive activity in Kunming mouse model at 13.9 nmol/kg, sc pretreated with NALM intracerebroventricularly followed by compound administration by tail-flick test. Format: functional, organism-based.
Another assay has as its target Mu-type opioid receptor (Homo sapiens, UniProt P35372). Kind of assay: Agonist activity at human MOR expressed in CHO-K1 cells co-expressing G-alpha15 by calcium mobilization assay relative to control. It counts as functional, cell-based. Particulars: filed as agonist.
The subject of assay [16] is Mus musculus. Kind of assay: Rewarding affect in Kunming mouse model at 13.8 nmol/kg, sc pre-exposed to place conditioning for 3 days followed by compound administration and further re-exposed to place conditioning measured on day 5 by unbiased CPP method. It counts as functional, organism-based. Particulars: time 2.0 day.
For assay [17], the system named is Mus musculus. Kind of assay: Antinociceptive activity in Kunming mouse model at 1.4 nmol/kg, sc pretreated with NALM intracerebroventricularly followed by compound administration by tail-flick test. It counts as functional, organism-based.
The test system of assay [18] is Mus musculus. As to the kind of experiment: Antinociceptive activity in Kunming mouse model at 1.4 nmol/kg, sc pretreated with NALM subcutaneously followed by compound administration by tail-flick test. Format: functional, organism-based.
The test system of assay [19] is Mus musculus. As to the kind of experiment: Antinociception activity in Kunming mouse model assessed as analgesic effect at 1.4 nmol/kg, sc administered daily measured for 8 days by tail-flick test. It counts as functional, organism-based. Particulars: time 8.0 day.
The test system of assay [20] is Mus musculus. As to the kind of experiment: Antinociception activity in Kunming mouse model assessed as analgesic effect at 1.4 nmol/kg, sc administered daily measured for 8 days in presence of NTI by tail-flick test. It counts as functional, organism-based. Particulars: time 8.0 day.
The subject of assay [21] is Mus musculus. Kind of assay: Induction of physical dependence in Kunming mouse model assessed as jumping behavior at 0.2 to 10 nmol/kg, sc administered as 7 escalating doses with 8 hr-intervals in-between followed by Nal administration post-2 hrs of last compound dose and further measured for 30 mins by withdrawal assay. It counts as functional, organism-based. Particulars: dose 0.2-10 nmol/kg, time 50.5 hrs.

For assay [22], the system named is Mus musculus. Kind of assay: Antinociceptive activity in Kunming mouse model at 1.4 nmol/kg, sc in presence of beta-FNA by tail-flick test. It counts as functional, organism-based.
The test system of assay [23] is Mus musculus. As to the kind of experiment: Antinociceptive activity in Kunming mouse model at 1.4 nmol/kg, sc in presence of nor-BNI by tail-flick test. It counts as functional, organism-based.
Assay [24] relates to Mus musculus. As to the kind of experiment: Antinociceptive activity in Kunming mouse model at 1.4 nmol/kg, sc in presence of NTI by tail-flick test. Format: functional, organism-based.
The subject of assay [25] is Mus musculus. As to the kind of experiment: Antinociceptive activity in Kunming mouse model assessed as increase in analgesic effect at 0.014 to 1.4 nmol/kg, sc measured for 180 to 360 mins by tail-flick test. Format: functional, organism-based. Particulars: dose 0.014-1.4 nmol/kg, time 180-360 min.
Assay [26] deals with Mus musculus. As to the kind of experiment: Antinociceptive activity in Kunming mouse model assessed as latency of tail withdrawal at 13881 nmol/kg, sc measured for 60 mins by tail-flick test relative to control. Format: functional. Particulars: 1 h.
Assay [27] relates to Mus musculus. As to the kind of experiment: Antinociceptive activity in Kunming mouse model assessed as latency of tail withdrawal at 13881 nmol/kg, sc measured for 10 mins by tail-flick test relative to control. It counts as functional.
Assay [28] deals with Mus musculus. Kind of assay: Antinociceptive activity in Kunming mouse model assessed as latency of tail withdrawal at 13881 nmol/kg, sc measured for 120 mins by tail-flick test relative to control. Format: functional. Particulars: 2 h.
The test system of assay [29] is Mus musculus. Kind of assay: Antinociceptive activity in Kunming mouse model assessed as latency of tail withdrawal at 13881 nmol/kg, sc measured for 30 mins by tail-flick test relative to control. It counts as functional. Particulars: 0.5 h.

Chain of Kappa-type opioid receptor (P41145 whole entry): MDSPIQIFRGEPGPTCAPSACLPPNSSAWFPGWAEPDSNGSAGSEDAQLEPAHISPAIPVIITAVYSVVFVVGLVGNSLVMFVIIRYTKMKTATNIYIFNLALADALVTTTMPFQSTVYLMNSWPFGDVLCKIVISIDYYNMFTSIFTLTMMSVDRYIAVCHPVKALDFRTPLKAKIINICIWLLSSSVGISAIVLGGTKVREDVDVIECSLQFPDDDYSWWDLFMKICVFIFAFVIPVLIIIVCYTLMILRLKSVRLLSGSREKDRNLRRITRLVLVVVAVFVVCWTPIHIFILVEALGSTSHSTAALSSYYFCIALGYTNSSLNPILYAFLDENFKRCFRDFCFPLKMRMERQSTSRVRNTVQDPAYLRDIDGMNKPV
Chain of Mu-type opioid receptor (P35372 whole entry): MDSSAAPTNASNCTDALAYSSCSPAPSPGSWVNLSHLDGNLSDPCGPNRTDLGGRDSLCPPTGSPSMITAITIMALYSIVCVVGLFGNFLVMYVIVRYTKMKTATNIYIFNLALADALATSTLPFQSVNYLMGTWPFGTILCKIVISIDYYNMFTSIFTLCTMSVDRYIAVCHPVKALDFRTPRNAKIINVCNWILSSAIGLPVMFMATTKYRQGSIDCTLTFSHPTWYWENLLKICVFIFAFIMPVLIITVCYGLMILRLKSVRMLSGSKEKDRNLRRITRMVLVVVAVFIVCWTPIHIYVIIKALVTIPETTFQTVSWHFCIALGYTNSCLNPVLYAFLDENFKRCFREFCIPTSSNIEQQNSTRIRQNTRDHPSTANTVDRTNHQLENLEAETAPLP
Chain of Delta-type opioid receptor (P41143 whole entry): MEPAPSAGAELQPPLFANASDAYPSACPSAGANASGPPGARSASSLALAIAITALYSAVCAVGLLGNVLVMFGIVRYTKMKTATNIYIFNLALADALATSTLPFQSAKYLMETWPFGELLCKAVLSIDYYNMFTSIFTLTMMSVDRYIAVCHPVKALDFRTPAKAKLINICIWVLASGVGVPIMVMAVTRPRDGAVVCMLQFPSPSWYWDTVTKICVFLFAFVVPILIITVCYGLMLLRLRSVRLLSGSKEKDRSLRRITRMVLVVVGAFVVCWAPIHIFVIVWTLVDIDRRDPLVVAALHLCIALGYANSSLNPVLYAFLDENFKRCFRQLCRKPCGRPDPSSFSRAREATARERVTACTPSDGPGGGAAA

In the case of `Cc1cc(O)cc(C)c1C[C@H](N)C(=O)N[C@@H]1CCCCNC(=O)C[C@@H](C(=O)N2CCC[C@@H]2C(N)=O)NC(=O)[C@H](Cc2ccccc2)NC(=O)CNC1=O`, the MPE in the assay on Mus musculus [1] stood at 90.5%; in the assay on Mus musculus [2], 73.4%; in the assay with Mus musculus [3] it was 44.5%; with Mus musculus [4], 75%.
The Emax is the greatest response seen or fitted, relative to the assay's reference. On to `CN1C(=O)CNC(=O)[C@H](NC(=O)[C@@H](N)Cc2ccc(O)cc2)CCCCNC(=O)C[C@H](C(=O)N2CCC[C@H]2C(N)=O)NC(=O)[C@@H]1Cc1ccccc1`, for which the result with Mus musculus [5], with Mus musculus [6], with Mus musculus [7], in the assay on Mus musculus [8] and with Mus musculus [13] was inactive. Further, the Emax was 93.7% in assay [9], 121% in assay [14] and 90.7% at Mu-type opioid receptor. Besides, the outcome in the assay with Mus musculus [10], in the assay with Mus musculus [11], with Mus musculus [12] and in the assay with Mus musculus [15] was Active.
Take `NC(=O)[C@@H]1CCCN1C(=O)[C@H]1CC(=O)NCCCC[C@@H](NC(=O)[C@@H](N)Cc2ccc(O)cc2)C(=O)NCC(=O)N[C@@H](Cc2ccc(F)cc2)C(=O)N1`: the outcome with Mus musculus [16], in the assay with Mus musculus [18], with Mus musculus [21], in the assay with Mus musculus [22] and in the assay on Mus musculus [23] was inactive. In addition, the result in the assay on Mus musculus [17], in the assay on Mus musculus [19], in the assay with Mus musculus [20], with Mus musculus [24] and in the assay on Mus musculus [25] was Active. Moreover, the Emax in [9] turned out to be 89.3%; in [14], 110%; on Mu-type opioid receptor it was 95.3%.
Turning to `CN1CC(=O)N[C@@H](Cc2ccccc2)C(=O)N[C@H](C(=O)N2CCC[C@@H]2C(N)=O)CC(=O)NCCCC[C@@H](NC(=O)[C@@H](N)Cc2ccc(O)cc2)C1=O`, the MPE is recorded as 75.7% in the assay with Mus musculus [26], 53.2% in the assay with Mus musculus [27], 58.7% with Mus musculus [28] and 92.7% with Mus musculus [29].
